Measured values as given in ChEMBL document CHEMBL1909046, “DrugMatrix in vitro pharmacology data”.

Key:
[1] = DRUGMATRIX: Sodium/nucleoside co-transporter radioligand binding (ligand: nitrobenzylthioinosine); type: cell membranes, Cavia porcellus, Dunkin-Hartley, Cerebral cortex, Membrane; conditions: Not Active = under 50% inhibition at 10 µM
[2] = molecular target: Sodium-dependent noradrenaline transporter (Homo sapiens, UniProt P23975); assay: DRUGMATRIX: Norepinephrine Transporter radioligand binding (ligand: [125I] RTI-55); type: cell membranes, MDCK, Membrane; conditions: mdck; Not Active = under 50% inhibition at 10 µM
Sequence of Sodium-dependent noradrenaline transporter (P23975 whole entry): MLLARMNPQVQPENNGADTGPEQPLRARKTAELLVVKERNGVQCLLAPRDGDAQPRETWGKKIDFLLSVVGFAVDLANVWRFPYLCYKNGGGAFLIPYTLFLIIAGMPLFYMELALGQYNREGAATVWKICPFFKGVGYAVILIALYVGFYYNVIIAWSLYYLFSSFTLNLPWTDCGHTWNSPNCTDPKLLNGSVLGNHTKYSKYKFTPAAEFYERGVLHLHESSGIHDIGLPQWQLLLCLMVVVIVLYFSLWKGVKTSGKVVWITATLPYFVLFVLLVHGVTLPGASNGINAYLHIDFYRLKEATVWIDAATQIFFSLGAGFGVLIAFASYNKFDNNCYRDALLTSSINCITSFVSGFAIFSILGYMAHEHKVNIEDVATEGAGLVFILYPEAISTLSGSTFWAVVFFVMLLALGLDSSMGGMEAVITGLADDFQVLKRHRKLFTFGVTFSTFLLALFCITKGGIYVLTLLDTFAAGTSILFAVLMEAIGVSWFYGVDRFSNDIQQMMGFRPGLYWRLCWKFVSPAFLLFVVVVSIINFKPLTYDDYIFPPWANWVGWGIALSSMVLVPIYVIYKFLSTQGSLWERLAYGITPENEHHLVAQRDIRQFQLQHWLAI

[3] = molecular target: T1, Type-2 angiotensin II receptor (Homo sapiens, UniProt P50052); type: cell-based; conditions: cho-k1; further: in other assays of this panel Not Active means under 50% inhibition at 10 µM
T1 sequence (P50052 whole entry): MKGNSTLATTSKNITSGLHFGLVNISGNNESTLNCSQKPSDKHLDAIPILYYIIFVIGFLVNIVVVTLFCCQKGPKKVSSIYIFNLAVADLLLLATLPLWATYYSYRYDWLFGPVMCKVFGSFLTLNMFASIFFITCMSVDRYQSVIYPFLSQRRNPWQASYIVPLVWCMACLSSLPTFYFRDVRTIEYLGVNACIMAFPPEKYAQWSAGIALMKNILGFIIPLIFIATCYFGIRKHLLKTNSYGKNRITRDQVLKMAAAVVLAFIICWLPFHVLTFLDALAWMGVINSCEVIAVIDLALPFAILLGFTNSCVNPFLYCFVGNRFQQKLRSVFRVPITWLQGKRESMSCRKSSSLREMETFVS

[4] = molecular target: 5-hydroxytryptamine receptor 2B (Homo sapiens, UniProt P41595); type: cell membranes, CHO-K1, Membrane; conditions: cho-k1; further: in other assays of this panel Not Active means under 50% inhibition at 10 µM
Sequence of 5-hydroxytryptamine receptor 2B (P41595 whole entry): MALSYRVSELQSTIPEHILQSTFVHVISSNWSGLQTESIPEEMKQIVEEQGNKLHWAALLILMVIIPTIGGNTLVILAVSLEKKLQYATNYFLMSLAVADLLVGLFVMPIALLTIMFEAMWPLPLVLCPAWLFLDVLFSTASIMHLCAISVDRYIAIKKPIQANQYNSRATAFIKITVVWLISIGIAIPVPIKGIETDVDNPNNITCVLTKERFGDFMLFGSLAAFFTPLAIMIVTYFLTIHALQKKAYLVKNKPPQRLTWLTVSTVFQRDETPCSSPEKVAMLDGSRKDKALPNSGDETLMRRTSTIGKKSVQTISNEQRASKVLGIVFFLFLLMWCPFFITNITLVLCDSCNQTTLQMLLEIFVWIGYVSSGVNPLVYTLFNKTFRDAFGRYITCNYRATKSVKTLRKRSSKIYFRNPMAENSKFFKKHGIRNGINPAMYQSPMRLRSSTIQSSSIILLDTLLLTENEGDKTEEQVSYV

Neutrophil elastase = molecular target: T2, Neutrophil elastase (Homo sapiens, UniProt P08246); type: tissue-based;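 further: inhibition of neutrophil elastase enzyme activity, measured with a p-nitroanilide-linked peptide substrate; in other assays of this panel Not Active means under 50% inhibition at 10 µM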
T2 sequence (P08246 whole entry): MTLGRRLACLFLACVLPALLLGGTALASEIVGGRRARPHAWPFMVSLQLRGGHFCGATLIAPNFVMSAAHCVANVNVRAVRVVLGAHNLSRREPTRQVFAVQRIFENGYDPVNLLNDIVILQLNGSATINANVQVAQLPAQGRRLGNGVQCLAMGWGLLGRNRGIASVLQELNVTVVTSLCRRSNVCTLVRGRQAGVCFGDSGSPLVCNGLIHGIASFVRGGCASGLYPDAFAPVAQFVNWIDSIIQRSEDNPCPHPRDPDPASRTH

[5] = molecular target: Protein phosphatase 3 catalytic subunit alpha (Homo sapiens, UniProt Q08209); parameters: species or system Escherichia coli;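 further: inhibition of calcineurin (PP2B) enzyme activity, measured with DiFMUP as the substrate; in other assays of this panel Not Active means under 50% inhibition at 10 µM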
[6] = molecular target: T3, Receptor-type tyrosine-protein phosphatase C (Homo sapiens, UniProt P08575); parameters: species or system Escherichia coli
T3 sequence (P08575 whole entry): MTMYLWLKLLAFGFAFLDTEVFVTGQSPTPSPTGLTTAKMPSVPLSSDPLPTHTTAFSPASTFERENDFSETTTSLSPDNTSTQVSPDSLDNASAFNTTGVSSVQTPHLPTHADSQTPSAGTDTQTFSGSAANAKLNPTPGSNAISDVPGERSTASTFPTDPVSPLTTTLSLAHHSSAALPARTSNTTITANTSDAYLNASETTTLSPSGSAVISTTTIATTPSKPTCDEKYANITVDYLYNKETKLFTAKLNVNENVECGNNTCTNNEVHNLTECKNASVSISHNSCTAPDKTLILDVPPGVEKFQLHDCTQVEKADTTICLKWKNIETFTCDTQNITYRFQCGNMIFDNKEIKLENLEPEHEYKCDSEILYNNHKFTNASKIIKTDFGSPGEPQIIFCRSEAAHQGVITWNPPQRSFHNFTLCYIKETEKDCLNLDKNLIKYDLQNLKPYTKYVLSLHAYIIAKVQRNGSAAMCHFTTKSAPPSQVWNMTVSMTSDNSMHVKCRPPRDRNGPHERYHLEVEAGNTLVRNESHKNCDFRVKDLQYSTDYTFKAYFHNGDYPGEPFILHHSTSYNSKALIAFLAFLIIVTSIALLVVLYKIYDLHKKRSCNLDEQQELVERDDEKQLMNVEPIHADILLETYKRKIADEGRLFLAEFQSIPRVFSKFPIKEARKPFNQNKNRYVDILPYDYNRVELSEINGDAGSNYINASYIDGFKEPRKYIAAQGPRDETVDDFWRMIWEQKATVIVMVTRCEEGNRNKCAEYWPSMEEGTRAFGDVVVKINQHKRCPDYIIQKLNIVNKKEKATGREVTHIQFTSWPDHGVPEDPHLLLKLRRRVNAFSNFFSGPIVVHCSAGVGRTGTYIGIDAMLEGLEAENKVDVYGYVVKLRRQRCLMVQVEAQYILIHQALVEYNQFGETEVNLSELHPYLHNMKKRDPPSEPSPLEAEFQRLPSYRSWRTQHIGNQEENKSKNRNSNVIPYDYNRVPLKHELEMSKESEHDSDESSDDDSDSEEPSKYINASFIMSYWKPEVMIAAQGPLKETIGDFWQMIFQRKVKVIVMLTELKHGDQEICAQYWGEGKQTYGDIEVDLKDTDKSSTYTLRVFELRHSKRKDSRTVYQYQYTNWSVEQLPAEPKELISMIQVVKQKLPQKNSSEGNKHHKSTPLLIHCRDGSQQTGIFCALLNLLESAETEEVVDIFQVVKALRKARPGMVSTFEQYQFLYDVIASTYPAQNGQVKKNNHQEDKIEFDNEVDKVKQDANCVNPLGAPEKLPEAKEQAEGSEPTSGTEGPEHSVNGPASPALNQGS

[7] = molecular target: T4, 5-hydroxytryptamine receptor 1A (Rattus norvegicus, UniProt P19327); type: cell membranes, Membrane; conditions: cho-k1; further: in other assays of this panel Not Active means under 50% inhibition at 10 µM
T4 sequence (P19327 whole entry): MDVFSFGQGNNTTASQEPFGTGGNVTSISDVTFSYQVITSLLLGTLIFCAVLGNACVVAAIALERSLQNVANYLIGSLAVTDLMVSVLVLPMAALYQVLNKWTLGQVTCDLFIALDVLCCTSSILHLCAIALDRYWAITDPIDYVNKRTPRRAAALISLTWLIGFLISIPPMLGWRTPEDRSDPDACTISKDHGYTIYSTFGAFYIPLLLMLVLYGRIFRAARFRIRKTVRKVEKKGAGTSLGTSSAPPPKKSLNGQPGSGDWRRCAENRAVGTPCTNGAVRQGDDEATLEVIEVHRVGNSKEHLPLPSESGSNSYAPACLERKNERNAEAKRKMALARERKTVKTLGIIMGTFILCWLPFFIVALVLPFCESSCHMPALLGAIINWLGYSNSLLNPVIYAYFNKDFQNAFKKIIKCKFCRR

CCCN(CCC)C(=O)C(CCC(=O)O)NC(=O)c1ccccc1 (stereo not given) [PROGLUMIDE]
Not Active: IC50 [1] | Ki [1] | IC50 [2] | IC50 [3] | IC50 [4] | IC50 (Neutrophil elastase) | IC50 [5] | IC50 [6] | IC50 [7]

NC(=O)c1cnccn1 [PYRAZINAMIDE]
Not Active: IC50 [1] | Ki [1] | IC50 [2] | IC50 [3] | IC50 [4] | IC50 (Neutrophil elastase) | IC50 [5] | IC50 [6] | IC50 [7]

OC(CCN1CCCCC1)(c1ccccc1)C1CCCCC1 (stereo not given) [TRIHEXYPHENIDYL]
Not Active: IC50 [1] | Ki [1] | IC50 [2] | IC50 [3] | IC50 [4] | IC50 (Neutrophil elastase) | IC50 [5] | IC50 [6] | IC50 [7]

Cc1cc2cc3c(C)cc(=O)oc3c(C)c2o1 [TRIOXSALEN]
Not Active: IC50 [1] | Ki [1] | IC50 [2] | IC50 [3] | IC50 [4] | IC50 (Neutrophil elastase) | IC50 [5] | IC50 [6] | IC50 [7]

CCCC(CCC)C(=O)O [VALPROIC ACID]
Not Active: IC50 [1] | Ki [1] | IC50 [2] | IC50 [3] | IC50 [4] | IC50 (Neutrophil elastase) | IC50 [5] | IC50 [6] | IC50 [7]

CCC1=C[C@@H]2CN(C1)Cc1c([nH]c3ccccc13)[C@@](C(=O)OC)(c1cc3c(cc1OC)N(C)[C@H]1[C@@](O)(C(=O)OC)[C@H](OC(C)=O)[C@]4(CC)C=CCN5CC[C@]31[C@@H]54)C2 [VINORELBINE]
Not Active: IC50 [1] | Ki [1] | IC50 [2] | IC50 [3] | IC50 [4] | IC50 (Neutrophil elastase) | IC50 [5] | IC50 [6] | IC50 [7]

CADMIUM DICHLORIDE
Not Active: IC50 [1] | Ki [1] | IC50 [2] | Ki [2] | IC50 [3] | Ki [3] | IC50 [4] | Ki [4] | IC50 (Neutrophil elastase) | Ki (Neutrophil elastase) | IC50 [5] | Ki [5] | IC50 [6] | Ki [6] | IC50 [7] | Ki [7]
